Literature values as cited in US20240261419A1, “[…] PSILOCIN CONJUGATES FOR TREATMENT OF MENTAL ILLNESSES” (LONDON PHARMACEUTICALS AND RESEARCH CORPORATION, priority 2021, published 2024).
Read-outs that look alike come from different tables or passages of the source.

Details: background comparison of pharmacokinetic profiles

Compound	time to reach maximum plasma level (CBD) [h]	time to reach maximum plasma level (psilocybin) [h]
C=C(C)[C@@H]1CCC(C)=C[C@H]1c1c(O)cc(CCCCC)cc1O [CBD, cannabidiol]	4 to 6	
CN(C)CCc1c[nH]c2cccc(OP(=O)(O)O)c12 [psilocy bin, psilocybin]		1.5
